This is an account of results in patent US12724034B2, “Tryptophan optical probe, preparation method therefor and use thereof” (priority 2020, dated 2026).

In assay [1] the target is T1, Streptococcus pneumoniae tryptophan-binding protein 31ft (SEQ ID NO: 1) with cpYFP inserted at 263/265, optical sensor 31ft-263/265-cpYFP, SEQ ID NO: 6 (Streptococcus pneumoniae, UniProt A0A0H2UPV6, DELINS312-312[…]).
T1 construct: His-tag; pCDF, E. coli JM109(DE3), nickel-column purified
The note with it: for response to amino acid (specific detection): specificity, FIG. 7. The procedure: (§1) 3. The centrifuged supernatant was purified by a self-packed nickel-column affinity chromatography column to obtain the protein, and the protein after nickel-column affinity chromatography was then passed through a self-packed desalting column to obtain the protein dissolved in 100 mM HEPES buffer (pH 7.4).

For assay [2], the target named is T2, Streptococcus pneumoniae tryptophan-binding protein 31ft (SEQ ID NO: 1) with cpYFP inserted at 263/266, optical sensor 31ft-263/266-cpYFP, SEQ ID NO: 7 (Streptococcus pneumoniae, UniProt A0A0H2UPV6, DELINS312-313[…]).
T2 construct: His-tag; E. coli JM109(DE3), nickel-purified
The settings on record: for response to amino acid (specific detection): specificity, FIG. 7. The procedure:
as §1

For assay [3], the target named is T3, Streptococcus pneumoniae tryptophan-binding protein 31ft (SEQ ID NO: 1) with cpYFP inserted at 263/265, SEQ ID NO: 6 (Streptococcus pneumoniae, UniProt A0A0H2UPV6, DELINS312-312[…]).
T3 construct: His-tag; pCDF, E. coli JM109(DE3) disrupted supernatant
In words: Tryptophan response screening, disrupted supernatant, cpYFP 263/265. The class given is biochemical. The note with it: 1 mM tryptophan, disrupted supernatant of E. coli. As for the experimental part:
(§2) Tryptophan response screening was performed with disrupted supernatants of E. coli expressing the 31ft-cpYFP fusion protein, and the detection signal of the fusion fluorescent protein containing 1 mM tryptophan was divided by the detection signal of the fusion fluorescent protein without tryptophan.

Assay [4] addresses T4, Streptococcus pneumoniae tryptophan-binding protein 31ft (SEQ ID NO: 1) with cpYFP inserted at 263/268, SEQ ID NO: 9 (Streptococcus pneumoniae, UniProt A0A0H2UPV6, DELINS312-315[…]).
T4 construct: His-tag; E. coli JM109(DE3), disrupted supernatant
In words: Tryptophan response screening, disrupted supernatant, cpYFP 263/268. The assay is classed as biochemical. The note with it: 1 mM tryptophan, disrupted supernatant of E. coli. The procedure: as §2

Assay [5] addresses T5, Streptococcus pneumoniae tryptophan-binding protein 31ft (SEQ ID NO: 1) with cpYFP inserted at 263/266, SEQ ID NO: 7 (Streptococcus pneumoniae, UniProt A0A0H2UPV6, DELINS312-313[…]).
T5 construct: His-tag; E. coli JM109(DE3), disrupted supernatant
In words: Tryptophan response screening, disrupted supernatant, cpYFP 263/266. The class given is biochemical. The note with it: 1 mM tryptophan, disrupted supernatant of E. coli. As for the experimental part: as §2

Assay [6] has as its target T6, Streptococcus pneumoniae tryptophan-binding protein 31ft (SEQ ID NO: 1) with cpYFP inserted at 263/268, optical sensor 31ft-263/268-cpYFP, SEQ ID NO: 9 (Streptococcus pneumoniae, UniProt A0A0H2UPV6, DELINS312-315[…]).
T6 construct: His-tag; E. coli JM109(DE3), nickel-purified
The experiment in a line: Titration and specificity detection, purified sensor 31ft-263/268-cpYFP. The note with it: 420/485 fluorescence ratio, concentration gradient tryptophan. The procedure:
as §1

In assay [7] the target is T7, Streptococcus pneumoniae tryptophan-binding protein 31ft (SEQ ID NO: 1) with cpGFP (SEQ ID NO: 3) inserted at 263/266 (Streptococcus pneumoniae, UniProt A0A0H2UPV6, DEL312-313).
T7 construct: E. coli disrupted supernatant
The experiment in a line: Tryptophan response screening, disrupted supernatant, cpGFP 263/266. The settings on record: method of Example 2 (1 mM tryptophan). The class given is biochemical. As for the experimental part:
as §2
(§3) According to the method in Example 2, cpYFP was replaced with cpGFP to construct a tryptophan green fluorescent protein fluorescent sensor.

The target of assay [8] is T8, Streptococcus pneumoniae tryptophan-binding protein 31ft (SEQ ID NO: 1) with cpGFP (SEQ ID NO: 3) inserted at 263/265 (Streptococcus pneumoniae, UniProt A0A0H2UPV6, DEL312-312).
T8 construct: E. coli disrupted supernatant
The experiment in a line: Tryptophan response screening, disrupted supernatant, cpGFP 263/265. The assay is classed as biochemical. The settings on record: method of Example 2 (1 mM tryptophan). The procedure: as §2, §3

The test system of assay [9] is Streptococcus pneumoniae 31ft-cpYFP optical sensor mutants L84F, F202W, K214F, K214W, Y217F, Y217W, K255F, K255W, T259F, T259W, I283F and I283W. The experiment in a line: Fluorescence detection of purified mutated cpYFP optical sensors. The assay is classed as biochemical. The note with it: purified proteins; FIG. 8. As for the experimental part:
The plasmids pCDF-31ft-263/265-cpYFP, pCDF-31ft-263/266-cpYFP, pCDF-31ft-263/267-cpYFP were linearized by PCR with the primers containing the base sequence of the desired mutation site.
Phosphorus was added to the obtained PCR products under the action of PNK, T4 DNA ligase and PEG4000, thereby obtaining mutant plasmids of 15 sites of H13, T71, L84, D93, K105, N117, T130, V170, V192, F202, K214, Y217, K255, T259, 1283, and the sequencing was completed by Jie Li Sequencing Company. An exemplary nucleic acid sequence is set forth in SEQ ID NO:40 (263/266-T259F).

For assay [10], the target named is tryptophan optical sensor (Streptococcus pneumoniae tryptophan-binding protein 31ft fusion) (Streptococcus pneumoniae, UniProt A0A0H2UPV6). The experiment in a line: Highest response of the tryptophan optical sensor provided in this application. The class given is biochemical.
Assay [11] deals with T9, Streptococcus pneumoniae tryptophan-binding protein 31ft with cpYFP inserted at 263/266, mutant T259F, optical sensor 31ft-263/266-cpYFP-T259F, SEQ ID NO: 31 (Streptococcus pneumoniae, UniProt A0A0H2UPV6, DELINS312-313[…]/T307F).
T9 construct: His-tag; E. coli, purified
In words: Fluorescence spectra and tryptophan response of purified 31ft-263/266-cpYFP-T259F. The assay is classed as biochemical. The procedure:
6. […] The determination of the absorption spectrum and fluorescence spectrum of the sample is completed by a spectrophotometer and a fluorescence spectrophotometer.
Detection of fluorescence spectra was performed using a fluorescence spectrophotometer after subjecting purified tryptophan optical sensor 31ft-263/266-cpYFP-T259F to 0 mM and 1 mM tryptophan treatments for 10 min, respectively.
Determination of emission spectra: excitation spectra were recorded with an fixed excitation wavelength of 420 nm and 485 nm and an emission range of 470-600 nm and 490-600 nm, read every 5 nm.

The target of assay [12] is T10, Streptococcus pneumoniae tryptophan-binding protein 31ft (SEQ ID NO: 1) with cpGFP (SEQ ID NO: 3) inserted at 263/267 (Streptococcus pneumoniae, UniProt A0A0H2UPV6, DEL312-314).
T10 construct: E. coli disrupted supernatant
In words: Tryptophan response screening, disrupted supernatant, cpGFP 263/267. The assay is classed as biochemical. The settings on record: method of Example 2 (1 mM tryptophan). As for the experimental part: as §2, §3

The test system of assay [13] is HeLa cells. The experiment in a line: Dynamic monitoring of tryptophan transmembrane transport in HeLa cells expressing the optical sensor in the cytosol. The note with it: 1 mM tryptophan, 30 min, HBSS. The assay is classed as cell-based. The procedure:
1. The pCDNA3.1+-based tryptophan optical sensor plasmid was transfected into HeLa by the transfection reagent Lipofectamine2000 (Invitrogen), and cultured in a cell incubator at 37° C., 5% CO2. Fluorescence detection was performed 24-36 h after the exogenous gene was fully expressed.
2. After induction of expression, adherent HeLa cells were washed three times with PBS and placed in HMS solution for fluorescence microscopy and microplate reader assays, respectively.
Add 1 mM tryptophan and continue the assay for 30 minutes.

The target in assay [14] is T11, Streptococcus pneumoniae tryptophan-binding protein 31ft (SEQ ID NO: 1) with cpGFP (SEQ ID NO: 3) inserted at 263/268 (Streptococcus pneumoniae, UniProt A0A0H2UPV6, DEL312-315).
T11 construct: E. coli disrupted supernatant
In words: Tryptophan response screening, disrupted supernatant, cpGFP 263/268. The note with it: method of Example 2 (1 mM tryptophan). The class given is biochemical. As for the experimental part: as §2, §3

For assay [15], the target named is T12, Streptococcus pneumoniae tryptophan-binding protein 31ft (SEQ ID NO: 1) with cpYFP inserted at 263/267, optical sensor 31ft-263/267-cpYFP, SEQ ID NO: 8 (Streptococcus pneumoniae, UniProt A0A0H2UPV6, DELINS312-314[…]).
T12 construct: His-tag; E. coli JM109(DE3), nickel-purified
In words: Titration and specificity detection, purified sensor 31ft-263/267-cpYFP. The note with it: 420/485 fluorescence ratio, concentration gradient tryptophan. As for the experimental part: as §1

For assay [16], the target named is T13, Streptococcus pneumoniae tryptophan-binding protein 31ft (SEQ ID NO: 1) with cpYFP inserted at 263/267, SEQ ID NO: 8 (Streptococcus pneumoniae, UniProt A0A0H2UPV6, DELINS312-314[…]).
T13 construct: His-tag; E. coli JM109(DE3), disrupted supernatant
In words: Tryptophan response screening, disrupted supernatant, cpYFP 263/267. The assay is classed as biochemical. The note with it: 1 mM tryptophan, disrupted supernatant of E. coli. As for the experimental part:
as §2

Setting [17] is: 420/485 fluorescence ratio, concentration gradient tryptophan.

Consider `N[C@@H](Cc1ccc(O)cc1)C(=O)O` [tyrosine], for which the “response to amino acid (specific detection)” value in assay [1] was found to be 1.25 times; in [2], 1.26 times.
Take `N[C@@H](Cc1c[nH]c2ccccc12)C(=O)O` [tryptophan, L-tryptophan]: the “response to tryptophan (signal with / without tryptophan)” value in assay [3], in assay [4], in assay [5] and in assay [16] was “more than 1.5 times” each time. The change amplitude is recorded as 3.0 times in assay [6], 3.3 times in assay [15], 4.2 times in assay [1] (setting [17]) and 5.3 times in assay [2] (setting [17]). The response to tryptophan result in [7] is recorded as “more than 1.5 times”; in [8], “more than 1.5 times”; in assay [9], “more than 2.5 times”; in [11] (purified protein) it was “more than 2.5 fold”; in assay [12], “more than 1.5 times”; in assay [14] it was “more than 1.5 times”. For the same compound, in assay [10], the “highest response to tryptophan, increase of the control” value is listed as “more than 9 fold”. Moreover, the “decrease in fluorescence intensity under excitation at 460 nm, compared to 0 mM tryptophan” value in [11] (1 mM tryptophan, 10 min) is given as 0.26 fold. Besides, the “fluorescence intensity excited at 420 nm, relative to 0 mM tryptophan” value in assay [11] (1 mM tryptophan, 10 min) is on record as 1.1 times. Also, the “highest 485/420 ratio relative to the initial value” in assay [13] stood at 1.3 times.
Regarding `N[C@@H](Cc1ccccc1)C(=O)O` [phenylalanine], the “response to amino acid (specific detection)” value turned out to be 1.37 times in assay [1] and 1.34 times in [2].
